Values quoted from earlier work, collected in PMC4033579 (Journal of experimental therapeutics & oncology, 2012).

Legend:
[1] = system: breast, ovarian, prostate tumor cells; settings: prostate cells in culture

SMILES: Cc1cc(Nc2nc(N[C@@H](C)c3ncc(F)cn3)ncc2Cl)[nH]n1 [AZD 1840]
- angiogenesis in human tumor xenografts (human tumor xenografts): reduction in angiogenesis
- growth of human tumor xenografts (human tumor xenografts): reduced growth
- cytotoxicity at concentrations that inhibit Tyr705 phosphorylation [1]: not cytotoxic
